Data on 52 compounds can be found in PubChem BioAssay AID1996.

Converted amounts (≈) assume the structure as drawn.

For this data set the following is noted: buffer; pH 7.4; 200.0 µM.
By kinetic solubility is commonly meant solubility judged after dilution from a stock solution rather than from solid. `COc1ccccc1NS(=O)(=O)c1ccc2[nH]c(=O)[nH]c2c1` displayed a solubility (kinetic) of over 47.9 µg/mL.
The value for `COc1ccc(C(C)NC(=O)Cc2cccs2)cc1OC` (configuration not stated) was over 45.8 µg/mL.
Consider `CCOc1ccccc1NC(=O)C(=O)NCCC1=CCCCC1`, for which the kinetic solubility was under 0.3 µg/mL.
The value for `CCc1cccc(NC(=O)c2ccc3c(=O)n4c(nc3c2)CCCCC4)c1` was 9.2 µg/mL (≈ 25.5 µM).
Compound `O=C(NC1CC1)c1nc(Cn2ccc([N+](=O)[O-])n2)no1` had a kinetic solubility of over 41.7 µg/mL.
To `COc1ccccc1CCNC(=O)c1ccc2nc[nH]c2c1` belongs over 44.3 µg/mL; to `O=S(=O)(NCc1cn2ccccc2n1)c1cccs1`, over 44 µg/mL.
In the case of `Cc1ccc(NC(=O)CNC(=O)c2ccco2)nc1`, the solubility (kinetic) is over 38.9 µg/mL.
The value for `COc1ccc(NC(=S)N2CCN(S(C)(=O)=O)CC2)cc1` was over 49.4 µg/mL; that for `CC(C)CCN1CCN(Cc2ccoc2)CC1CCO` (configuration not stated) was 29.6 µg/mL (≈ 106 µM).
The value for `C[C@H](NC(=O)c1ccc2c(c1)OCO2)c1nnc2ccccn12` was over 46.5 µg/mL; that for `COC(=O)Nc1nc2ccc(C(=O)c3cccs3)cc2[nH]1` was 0.3 µg/mL (≈ 0.996 µM); that for `Cc1[nH]c2ccc(C(=O)Nc3ccncc3)cc2c1C` was 34.7 µg/mL (≈ 131 µM).
The value for `Cc1ccc(NC(=O)c2ccc3[nH]c(=O)c(=O)[nH]c3c2)nc1` was 8.7 µg/mL (≈ 29.4 µM).
Consider `CC(=O)Oc1ccc(N(C(C)=O)S(=O)(=O)c2ccc(C)cc2C)c2ccccc12`, for which the solubility (kinetic) amounted to 4.3 µg/mL (≈ 10.5 µM).
The value for `Cn1c(=O)oc2cc(S(=O)(=O)Nc3ccc(Cl)cc3)ccc21` was 4.1 µg/mL (≈ 12.1 µM).
To `CCOC(=O)c1ccc(NC(=O)CC2SC3=NCCN3C2=O)cc1` (configuration not stated) belongs over 52.1 µg/mL; to `Cc1ccc(OCc2cnc(Cl)s2)c(C)c1`, under 0.5 µg/mL.
Take `CC1(C)CC(=O)C(=CN2CCOCC2)C(=O)C1`: the solubility (kinetic) was over 35.6 µg/mL.
To `Cc1cccc(OCC(=O)OC(C)CN2CCCCC2)c1.Cl` (configuration not stated) belongs over 49.2 µg/mL.
To `COc1ccc(Cl)cc1NC(=O)NCCN1CCNC1=O` belongs 43.9 µg/mL (≈ 140 µM); to `CN(C(=O)CN1C(=O)c2ccc([N+](=O)[O-])cc2C1=O)C1CCCCC1`, over 51.8 µg/mL; to `CC(=O)N1CCC[C@H]1C(=O)O`, over 23.6 µg/mL.
To `Cc1ccc(SCC(=O)c2ccc[nH]2)cc1` belongs 24.6 µg/mL (≈ 106 µM); to `CC(C)(C)c1ccc(C(=O)OCCN2CCCCC2)cc1.Cl`, 46 µg/mL; to `O=[N+]([O-])C1=CC=C2C(=NC3(CCCCC3)N2O)C1=NCCc1ccccc1`, 1.4 µg/mL (≈ 3.82 µM).
In turn, `Cc1nccn1C[C@@H]1CCc2c(c3ccccc3n2C)C1=O` registered a kinetic solubility of 32.5 µg/mL (≈ 111 µM).
To `CC1CCN(CC(=O)N2CCN(c3ccccc3)CC2)CC1` belongs 40.8 µg/mL (≈ 135 µM); to `CCN1/C(=C/C(=S)Nc2ccccc2)Sc2ccccc21`, 6.7 µg/mL (≈ 21.4 µM); to `O=C(c1ccc2c(c1)OCO2)C1CCCN(CC2CCCCC2)C1` (configuration not stated), over 49.4 µg/mL.
`Cc1cc2ccccn2c1C(=O)c1cccc(F)c1` yielded a solubility (kinetic) of 4.9 µg/mL (≈ 19.3 µM).
The value for `CC(C)CNc1c2c(nc3ccccc13)CCC2.Cl` was over 41.5 µg/mL; that for `CCNC(=O)CC1C(=O)N(c2ccccc2)C(=O)N1CCOC` (configuration not stated) was over 47.9 µg/mL; that for `O=C(COc1ccc(-c2nnco2)cc1)N1CCOCC1` was over 43.4 µg/mL.
The value for `Cc1cc(=O)n(C)c2ccc(S(=O)(=O)N3CCOCC3)cc12` was 46.5 µg/mL (≈ 144 µM); that for `O=[N+]([O-])c1cccnc1Oc1ccccc1F` was over 35.1 µg/mL; that for `Nc1cc(=O)[nH]c(SCC(=O)Nc2cccc(S(=O)(=O)N3CCCCC3)c2)n1` was over 63.5 µg/mL.
The value for `COc1cccc(NC(=O)CC2Oc3ccccc3NC2=O)c1` (configuration not stated) was 6.7 µg/mL (≈ 21.5 µM); that for `O=S(=O)(Nc1cccc2cccnc12)c1ccccc1` was 3.9 µg/mL (≈ 13.7 µM).
As for `COc1ccc(-c2ccc(CCC(=O)O)n2Cc2ccco2)cc1`, the solubility (kinetic) worked out at 48.1 µg/mL (≈ 148 µM).
The value for `COc1ccc(-c2ccc(C(=O)O)o2)c([N+](=O)[O-])c1` was over 39.5 µg/mL; that for `O=c1cccc2n1CC1CNCC2C1` (configuration not stated) was over 28.5 µg/mL; that for `O=C(OCC(=O)N1CCN(c2ccccc2)CC1)c1ccc[n+]([O-])c1` was 44.5 µg/mL (≈ 130 µM).
The value for `COc1ccc2c(c1)CCCC21NC(=O)N(CC(=O)N2CC(C)OC(C)C2)C1=O` (configuration not stated) was over 60.2 µg/mL; that for `Cc1ccc(CC2CC(=O)N(c3cc(Cl)ccn3)C2=O)cc1` (configuration not stated) was 13.7 µg/mL (≈ 43.5 µM).
Regarding `CC1CC(=O)Nc2ccccc2N1C(=O)Nc1ccc(F)cc1` (configuration not stated), the kinetic solubility is over 47 µg/mL.
`CC(=O)Nc1ccc(Oc2ccccc2)cc1` registered a solubility (kinetic) of 33.6 µg/mL (≈ 148 µM).
The value for `CSCC(=O)NC1CCCN(C2Cc3ccccc3C2)C1` (configuration not stated) was 44.1 µg/mL (≈ 145 µM).
To `COc1ccc(C2(CNC(=O)c3ccccc3)CCCC2)cc1OC` belongs 8.2 µg/mL (≈ 24.2 µM); to `O=C(COc1ccc2c(c1)OCO2)Nc1nccs1`, 20.9 µg/mL (≈ 75.1 µM); to `CSc1ccccc1NC(=O)CCc1ccccc1`, 35.5 µg/mL (≈ 131 µM).
`CN(C(=O)COc1ncnc2sccc12)c1ccccc1` displayed a kinetic solubility of 39.4 µg/mL (≈ 132 µM).
